Source: article PMC3469158, “Hesperidin-3′-O-Methylether Is More Potent than Hesperidin in Phosphodiesterase Inhibition and Suppression of Ovalbumin-Induced Airway Hyperresponsiveness” (Evidence-based Complementary and Alternative Medicine : eCAM, 2012)

Experiments:
PDE3 = PDE3 activity in homogenate of guinea pig lungs or hearts; assay type: biochemical; settings: guinea pig lung or heart homogenate; read-out: IC50 for PDE3 inhibition
Experimental: (§1) Activities of PDE1∼5 in the homogenate of guinea pig lungs or hearts were measured by a two-step procedure according to the previous method, using cAMP with [^3 H]-cAMP or cGMP with [^3 H]-cGMP as substrates. The enzyme preparation (25 μL) was incubated for 30 min at 37°C in a total assay volume of 100 μL containing 50 mM Tris-HCl (pH 7.4), 3 mM MgCl2, 1 mM dithiothreitol, 0.05% BSA, and 1 μM cAMP with 0.2 μCi [^3 H]-cAMP as a substrate alone or in the presence of 0.1 unit calmodulin with 10 μM CaCl2 or 5 μM cGMP, and 1 μM cGMP with 0.2 μCi [^3 H]-cGMP as another substrate alone or in the presence of 0.1 unit calmodulin with 10 μM CaCl2. […] The reagents and homogenate were mixed on ice, and the reaction was initiated by transferring the mixture to a water bath at 37°C. Following a 30 min incubation, the reaction was stopped by transferring the reaction vessel to a bath of boiling water for 3 min. After cooling on ice, 20 μL of a 1 mg/mL solution of Crotalus atrox snake venom was added to the reaction mixture, and the mixture was incubated at 37°C for 10 min. Unreacted [^3 H]-cAMP or [^3 H]-cGMP was removed by the addition of 500 μL of a 1-in-1 Tris-HCl (40 mM) buffer suspension of Dowex resin (1 × 2-400) with incubation on ice for 30 min. Each tube was then centrifuged at 3700 g for 2 min, and 100 μL of the supernatant was removed for liquid scintillation counting.

PDE1 = PDE1 activity in homogenate of guinea pig lungs or hearts ([3H]-cAMP/[3H]-cGMP two-step procedure); assay type: biochemical; settings: guinea pig lung or heart homogenate; read-out: IC50 for PDE1 inhibition
Experimental: as §1

PDE4 = PDE4 activity in homogenate of guinea pig lungs or hearts (PDE4L); assay type: biochemical; settings: guinea pig lung or heart homogenate; read-out: IC50 for PDE4 inhibition (PDE4L value)
Experimental: as §1

[1] = test system: duration of xylazine/ketamine-induced anesthesia; test: Xylazine/ketamine-induced anesthesia (surrogate of emesis); assay type: in vivo, BALB/c mice; settings: 300 μmol/kg s.c., 1 h before anesthesia; mice
Experimental: According to a previously described method and modified by us, hesperidin, hesperidin-3′-O-methylether (each 300 μmol/kg, subcutaneously (s.c.)), or Ro 20-1724 (0.01∼1 μmol/kg, s.c.), a reference drug, was, respectively, injected into 8∼12-week-old female BALB/c mice 1, 1 or 0.25 h prior to an i.p. injection of xylazine (10 mg/kg)/ketamine (70 mg/kg). The vehicle (control) for hesperidin, hesperidin-3′-O-methylether, or Ro 20-1724 was a mixture of DMSO : PEG 400 : saline (1 : 1 : 8, v/v). After the loss of the righting reflex (i.e., when a mouse remained on its back and no longer spontaneously righted itself to a prone position), the duration of anesthesia was measured until its return as the endpoint.

cytokines in BALF = test: Cytokine levels in BALF of sensitized and challenged mice (flow cytometric CBA); assay type: in vivo, BABL/c mice
Experimental: (§2) According to the schedule (Figure 2), ten female BABL/c mice in each group were sensitized by an intraperitoneal (i.p.) injection of 20 μg of ovalbumin emulsified in 2.25 mg of an aluminum hydroxide gel, prepared from aluminum sulfate hexadecahydrate, in a total volume of 100 μL on days 0 and 14. Mice were challenged via the airway using 1% ovalbumin in saline for 30 min on days 28, 29, and 30 by ultrasonic nebulization. After the last ovalbumin challenge, AHR was assessed on day 32 (48 h after 1% ovalbumin provocation) in each group. Each group of mice was orally (p.o.) administered the vehicle (control), 30∼100 μmol/kg of hesperidin or 10∼100 μmol/kg of hesperidin-3′-O-methylether 2 h before and 6 and 24 h after ovalbumin provocation. For comparison, sham-treated mice were challenged with saline instead of 1% ovalbumin (nonchallenged). The vehicle, a mixture of DMSO : PEG 400 : saline (1 : 1 : 8, v/v), hesperidin, or hesperidin-3′-O-methylether was administered (p.o.) at a volume of 0.01 mL/g of body weight. AHR was assessed by barometric plethysmography using a whole-body plethysmograph (WBP) and analyzed using software of Life Science Suite P3 Analysis Modules (Gould, LDS Test and Measurement LLC, Valley View, OH, USA) in unrestrained animals. Mice were placed into the main chamber of the WBP, and the baseline enhanced pause (P enh) value was determined. Then mice were first nebulized with phosphate-buffered saline (PBS), and subsequently with increasing doses (6.25∼50 mg/mL) of methacholine for 3 min for each nebulization, followed by readings of breathing parameters for 3 min after each nebulization to determine P enh values. Twenty-four hours after P enh determination, these mice were anesthetized with pentobarbital (50 mg/kg, i.p.), and the lungs were lavaged via a tracheal tube with PBS (1 × 1.0 mL, 37°C). After lavage, blood was collected from the jugular vein and allowed to sit so that it would coagulate. The collected bronchoalveolar lavage fluid (BALF) and coagulated blood were respectively centrifuged at 630 g for 7 min and at 3700 g for 10 min at 4°C. After centrifugation, the BALF and serum supernatants were stored at −20°C until determinations of cytokines, including interleukin (IL)-2, IL-4, IL-5, tumor necrosis factor (TNF)-α, and interferon (IFN)-γ by flow cytometric methods using mouse Th1/Th2 cytokine CBA kits, and of a total immunoglobulin (Ig)E and IgG2a using ELISA kits (Pharmingen, San Diego, CA, USA) according to the respective recommendations of the manufacturers. Ovalbumin-specific IgE was measured as described previously. Wells were coated with 100 μL of ovalbumin (20 μg/mL) instead of the capture antibody. Levels are expressed in arbitrary units, where 1 arbitrary unit equals the optical density of the sample divided by the optical density of unchallenged mouse serum or BALF (standard). The BALF pellet was resuspended in ACK lysing buffer (1.658 g NH4Cl, 0.2 g KHCO3, and […] EDTA in 200 mL of water) to lyse the residual erythrocytes in each sample. The number of inflammatory cells was counted using a hemocytometer (Hausser Scientific, Horsham, PA, USA). Cytospin slides were stained and cell differentials were determined in a blinded fashion by counting at least 100 cells under light microscopy. All undetectable data (<1 pg/mL) of cytokines were taken as 0.5 pg/mL.

[2] = test system: IgE and IgG2a in serum and BALF; test: Total and ovalbumin-specific IgE and total IgG2a in serum and BALF (ELISA); assay type: in vivo, BABL/c mice
Experimental: as §2

[3] = test system: airway hyperresponsiveness in ovalbumin-sensitized and challenged mice; test: Ovalbumin-induced airway hyperresponsiveness, Penh by whole-body plethysmography; assay type: in vivo, BABL/c mice; settings: for Penh value at the baseline / Penh value with PBS nebulization: sensitized and challenged mice
Experimental: as §2

## COc1ccc([C@@H]2CC(=O)c3c(O)cc(O[C@@H]4O[C@H](CO[C@@H]5O[C@@H](C)[C@H](O)[C@@H](O)[C@H]5O)[C@@H](O)[C@H](O)[C@H]4O)cc3O2)cc1O [hesperidin]
PDE3
  IC50: > 100 µM
PDE1
  IC50: > 100 µM
PDE4
  IC50: > 100 µM
[1]
  duration of xylazine/ketamine-induced anesthesia: Neither hesperidin nor hesperidin-3′-O-methylether (each 300 μmol/kg, s.c.) influenced the duration
Cytokines in BALF; 100 μmol/kg p.o.
  increase in level of TNF-α in BALF: significantly suppressed
  level of IFN-γ in BALF compared to the control: significantly enhanced
Cytokines in BALF; 30∼100 μmol/kg p.o.
  increases in levels of IL-2, IL-4, IL-5 in BALF: significantly suppressed
[2]; 30 μmol/kg p.o.
  total and OVA-specific IgE levels in the serum and BALF: but not hesperidin, significantly suppressed
[2]; 100 μmol/kg p.o.
  levels of total and ovalbumin-specific IgE in the BALF and serum: significantly suppressed
  reduction of total IgG2a level in the serum: significantly reversed
[3]; 30 μmol/kg p.o.
  suppression of AHR: but not hesperidin, significantly suppressed AHR
  Penh value at the baseline: 2.39 ± 0.06
  Penh value with PBS nebulization: 2.40 ± 0.05
[3]; 100 μmol/kg p.o.
  Penh value at the baseline: 2.41 ± 0.04
  Penh value with PBS nebulization: 2.39 ± 0.05
[3]; 100 μmol/kg p.o., vs control (vehicle)
  enhancement of Penh values induced by 25 and 50 mg/mL methacholine: significantly attenuated
